Earlier results on 1 molecule are cited in patent publication US20260335284A1, “STABLE MITOMYCIN CONCENTRATES” (STEPS BIOSCIENCES, INC., priority 2022, published 2026).

For the data set the following is noted: EP 0415430A1.

Turning to `CO[C@@]12[C@H](COC(N)=O)C3=C(C(=O)C(C)=C(N)C3=O)N1C[C@@H]1N[C@@H]12` [MMC, Mitomycin C], for the setting “in water and also in PEG”, the “Stability in water and in PEG” value is given as “very unstable”. In addition, for the setting “solutions at 5 mg/mL”, the “Stability in PG with finite percentage of water (5%)” value was “most stable”.
